One may read the inhibition as how much of the control response was suppressed. In general, IC50 refers to the midpoint of a concentration-inhibition curve. Read a high IC50 as weaker potency.

The values below come from article PMC10179972, “New Hybrid Tetrahydropyrrolo[3,2,1-ij]quinolin-1-ylidene-2-thioxothiazolidin-4-ones as New Inhibitors of Factor Xa and Factor XIa: Design, Synthesis, and In Silico and Experimental Evaluation” (Molecules, 2023).

One test deals with T1, factor Xa (Homo sapiens, UniProt P00742).
T1 construct: followed by the addition of factor Xa (final concentration, 2.5 nmol·L^–1)
T1 sequence (P00742 235-488 limits assumed): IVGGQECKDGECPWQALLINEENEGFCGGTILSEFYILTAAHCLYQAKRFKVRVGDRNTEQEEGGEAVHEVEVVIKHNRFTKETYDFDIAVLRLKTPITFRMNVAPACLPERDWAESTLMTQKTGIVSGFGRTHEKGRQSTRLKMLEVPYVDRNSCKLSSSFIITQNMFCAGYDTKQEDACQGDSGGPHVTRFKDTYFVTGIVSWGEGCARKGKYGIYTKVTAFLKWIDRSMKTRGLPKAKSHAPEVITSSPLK
T1 sequence (P00742 41-179 partner limits assumed): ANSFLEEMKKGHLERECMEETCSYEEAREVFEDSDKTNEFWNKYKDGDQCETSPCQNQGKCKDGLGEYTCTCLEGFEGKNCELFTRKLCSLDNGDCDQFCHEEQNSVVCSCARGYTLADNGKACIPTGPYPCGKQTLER
Description: Inhibition of factor Xa, kinetics of hydrolysis of chromogenic substrate S2765. The format is biochemical. Conditions: for inhibition at 30 µM: 30 μM compound, factor Xa 2.5 nmol/L, S2765 200 μmol/L, pH 8.0, read-out: Percent Inhibition at 30 μM, Xa; for IC50: substrate S2765, buffer solution. Here is the method:
We measured the kinetics of the hydrolysis of the specific substrates S2765 or S2366 by factors Xa and XIa, respectively, in the buffer solution and in the presence of various concentrations of compounds.
(§1) A specific low-molecular-weight chromogenic substrate, S2765 (Z-D-Arg-Gly-Arg-pNA·2HCl), was used in the case of factor Xa, while the substrate S2366 (pyroGlu-Pro-ArgpNA·HCl) (both substrates from Chromogenix, USA) was used for factor XIa.
A buffer containing 140 mM NaCl, 20 mM HEPES, and 0.1% PEG 6000 (pH 8.0) was placed in the wells of a 96-well plate, followed by the addition of factor Xa (final concentration, 2.5 nmol·L^–1) or XIa (final concentration 0.8 nmol·L^–1), the substrate S2765 (final concentration, 200 μmol·L^–1) or S2366 (final concentration, 200 μmol·L^–1), and a solution of the test compound in DMSO (final concentration, 30 μmol·L^–1; the DMSO content in the well was no more than 2%). […] The initial rate of substrate degradation was determined from the initial slope of the 4-nitroaniline-formation curve. The rate of substrate degradation by the enzyme in the presence of the inhibitor was expressed as a percentage relative to the rate of substrate degradation in the absence of the inhibitor. The data obtained were processed using GraphPad Prism and OriginPro 8 software.

The target in the next test is factor XIa (Homo sapiens, UniProt P03951). In words: Inhibition of factor XIa, kinetics of hydrolysis of chromogenic substrate S2366. The format is biochemical. Conditions: for inhibition at 30 µM: 30 μM compound, factor XIa 0.8 nmol/L, S2366 200 μmol/L, pH 8.0, read-out: Percent Inhibition at 30 μM, XIa; for IC50: substrate S2366, buffer solution. Here is the method: Compounds 12, 14 and 16 were evaluated for their anticoagulant activity against factors Xa and Xia, and the results are presented in Table 1. For the best Xa and XIa inhibitors, additional measurements were performed to determine the IC50 values. We measured the kinetics of the hydrolysis of the specific substrates S2765 or S2366 by factors Xa and XIa, respectively, in the buffer solution and in the presence of various concentrations of compounds.
Chain of factor XIa (P03951 388-625 limits assumed): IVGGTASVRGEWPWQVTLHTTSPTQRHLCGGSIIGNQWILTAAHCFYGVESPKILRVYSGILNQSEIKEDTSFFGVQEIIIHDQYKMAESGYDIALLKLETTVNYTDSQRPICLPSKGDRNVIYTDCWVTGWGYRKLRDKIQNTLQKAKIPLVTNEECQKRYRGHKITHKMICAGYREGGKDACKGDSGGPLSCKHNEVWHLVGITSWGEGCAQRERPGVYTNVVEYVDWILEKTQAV
Chain of factor XIa (P03951 19-387 partner limits assumed): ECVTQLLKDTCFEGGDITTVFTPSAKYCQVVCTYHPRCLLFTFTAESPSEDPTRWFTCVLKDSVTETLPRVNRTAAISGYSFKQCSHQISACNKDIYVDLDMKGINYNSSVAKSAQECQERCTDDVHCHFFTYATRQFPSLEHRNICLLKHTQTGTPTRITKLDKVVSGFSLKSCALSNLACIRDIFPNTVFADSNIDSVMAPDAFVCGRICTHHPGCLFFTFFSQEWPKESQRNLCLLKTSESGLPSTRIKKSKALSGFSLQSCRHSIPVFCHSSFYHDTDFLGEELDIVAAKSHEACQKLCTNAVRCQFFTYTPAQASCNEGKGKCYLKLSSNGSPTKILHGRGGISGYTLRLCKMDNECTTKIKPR
as §1
A buffer containing 140 mM NaCl, 20 mM HEPES, and 0.1% PEG 6000 (pH 8.0) was placed in the wells of a 96-well plate, followed by the addition of factor Xa (final concentration, 2.5 nmol·L^–1) or XIa (final concentration 0.8 nmol·L^–1), the substrate S2765 (final concentration, 200 μmol·L^–1) or S2366 (final concentration, 200 μmol·L^–1), and a solution of the test compound in DMSO (final concentration, 30 μmol·L^–1; the DMSO content in the well was no more than 2%). The kinetics of the formation of p-nitroaniline were measured using a THERMOmax Microplate Reader (Molecular Devices Corporation, USA) using the absorption of light with a wavelength of 405 nm. The initial rate of substrate degradation was determined from the initial slope of the 4-nitroaniline-formation curve. The rate of substrate degradation by the enzyme in the presence of the inhibitor was expressed as a percentage relative to the rate of substrate degradation in the absence of the inhibitor. The data obtained were processed using GraphPad Prism and OriginPro 8 software.

Take `CC1CC(C)(C)N2C(=O)/C(=C3\SC(=S)NC3=O)c3cccc1c32` (stereo not drawn) [12a, (Z)-2-Thioxo-5-(4,4,6-trimethyl-2-oxo-5,6-dihydro-4H-pyrrolo[3,2,1-ij]quinolin-1(2H)-ylidene)thiazolidin-4-one]: the inhibition at 30 µM turned out to be 94% on factor Xa and 22% on factor XIa. Also, it took 9.41 ± 0.35 µM to reach half-maximal inhibition against factor Xa (IC50).
`CC1CC(C)(C)N2C(=O)/C(=C3\SC(=S)NC3=O)c3cc(I)cc1c32` (stereo not drawn) [12b, (Z)-5-(8-Iodo-4,4,6-trimethyl-2-oxo-5,6-dihydro-4H-pyrrolo[3,2,1-ij]quinolin-1(2H)-ylidene)-2-thioxothiazolidin-4-one]: on factor Xa, the inhibition at 30 µM came out at 81% and the IC50 amounted to 3.53 ± 0.08 µM. Besides, the inhibition at 30 µM at factor XIa turned out to be 12%.
`CC1CC(C)(C)N2C(=O)/C(=C3\SC(=S)NC3=O)c3cc(OC(=O)c4ccccc4)cc1c32` (stereo not drawn) [12c, (Z)-4,4,6-Trimethyl-2-oxo-1-(4-oxo-2-thioxothiazolidin-5-ylidene)-1,2,5,6-tetrahydro-4H-pyrrolo[3,2,1-ij]quinolin-8-yl benzoate]: the results for the inhibition at 30 µM on factor Xa and at factor XIa were 58% and 72%, respectively.
`COc1ccccc1C(=O)Oc1cc2c3c(c1)C(C)CC(C)(C)N3C(=O)/C2=C1\SC(=S)NC1=O` (stereo not drawn) [12d, (Z)-4,4,6-Trimethyl-2-oxo-1-(4-oxo-2-thioxothiazolidin-5-ylidene)-1,2,5,6-tetrahydro-4H-pyrrolo[3,2,1-ij]quinolin-8-yl 2-methoxybenzoate]: on factor Xa, the inhibition at 30 µM stood at 63% and the midpoint of inhibition, the IC50, lay at 2.35 ± 0.22 µM. Also, at factor XIa, the inhibition at 30 µM turned out to be 98% and 3.79 ± 0.03 µM corresponded to half-maximal inhibition (IC50).
Consider `COc1cc(C(=O)Oc2cc3c4c(c2)C(C)CC(C)(C)N4C(=O)/C3=C2\SC(=S)NC2=O)cc(OC)c1OC` (stereo not drawn) [12e, (Z)-4,4,6-Trimethyl-2-oxo-1-(4-oxo-2-thioxothiazolidin-5-ylidene)-1,2,5,6-tetrahydro-4H-pyrrolo[3,2,1-ij]quinolin-8-yl 3,4,5-trimethoxybenzoate], for which the figures for the inhibition at 30 µM on factor Xa and at factor XIa were 49% and 94%, respectively. Moreover, it took 3.74 ± 0.33 µM to reach half-maximal inhibition on factor XIa (IC50).
In the case of `CCN1C(=O)/C(=C2/C(=O)N3c4c2cc(OC)cc4C(C)CC3(C)C)SC1=S` (stereo not drawn) [12f, (Z)-3-Ethyl-5-(8-methoxy-4,4,6-trimethyl-2-oxo-5,6-dihydro-4H-pyrrolo[3,2,1-ij]quinolin-1(2H)-ylidene)-2-thioxothiazolidin-4-one], the inhibition at 30 µM at factor Xa stood at 18%; at factor XIa it was 5%.
As for `CC1(c2ccccc2)CC(C)(C)N2C(=O)/C(=C3\SC(=S)NC3=O)c3cc(F)cc1c32` (stereo not drawn) [12g, (Z)-5-(8-Fluoro-4,4,6-trimethyl-2-oxo-6-phenyl-5,6-dihydro-4H-pyrrolo[3,2,1-ij]quinolin-1(2H)-ylidene)-2-thioxothiazolidin-4-one], at factor Xa, the inhibition at 30 µM stood at 99% and 3.7 ± 0.03 µM corresponded to half-maximal inhibition (IC50). Moreover, on factor XIa, the inhibition at 30 µM worked out at 98% and the IC50 came out at 5.03 ± 0.18 µM.
On the same counts, the results for `CC1(c2ccccc2)CC(C)(C)N2C(=O)/C(=C3\SC(=S)NC3=O)c3cc(Br)cc1c32` (stereo not drawn) [12h, (Z)-5-(8-Bromo-4,4,6-trimethyl-2-oxo-6-phenyl-5,6-dihydro-4H-pyrrolo[3,2,1-ij]quinolin-1(2H)-ylidene)-2-thioxothiazolidin-4-one] are 73%, 2.28 ± 0.23 µM, 98% and 3.73 ± 0.03 µM.
`CC1(c2ccccc2)CC(C)(C)N2C(=O)/C(=C3\SC(=S)NC3=O)c3cc(I)cc1c32` (stereo not drawn) [12i, (Z)-5-(8-Iodo-4,4,6-trimethyl-2-oxo-6-phenyl-5,6-dihydro-4H-pyrrolo[3,2,1-ij]quinolin-1(2H)-ylidene)-2-thioxothiazolidin-4-one]: at factor Xa, the inhibition at 30 µM is 75% and it took 3.44 ± 0.06 µM to reach half-maximal inhibition (IC50). In addition, at factor XIa, the inhibition at 30 µM was 96% and the IC50 is 5.04 ± 0.33 µM.
Regarding `CCN1C(=O)/C(=C2/C(=O)N3c4c2cccc4C(C)(c2ccccc2)CC3(C)C)SC1=S` (stereo not drawn) [12j, (Z)-3-Ethyl-2-thioxo-5-(4,4,6-trimethyl-2-oxo-6-phenyl-5,6-dihydro-4H-pyrrolo[3,2,1-ij]quinolin-1(2H)-ylidene)thiazolidin-4-one], the values for the inhibition at 30 µM on factor Xa and at factor XIa were 89% and 77%, respectively.
On to `CC1(c2ccc(Cl)cc2)CC(C)(C)N2C(=O)/C(=C3\SC(=S)NC3=O)c3cc(F)cc1c32` (stereo not drawn) [12k, (Z)-5-(6-(4-Chlorophenyl)-8-fluoro-4,4,6-trimethyl-2-oxo-5,6-dihydro-4H-pyrrolo[3,2,1-ij]quinolin-1(2H)-ylidene)-2-thioxothiazolidin-4-one], for which, at factor Xa, the inhibition at 30 µM turned out to be 99% and half-maximal inhibition (IC50) was put at 2.85 ± 0.23 µM. Moreover, on factor XIa, the inhibition at 30 µM is 99% and the 50% inhibitory concentration (IC50) turned out to be 5.24 ± 0.29 µM.
For `CC1(c2ccc(Cl)cc2)CC(C)(C)N2C(=O)/C(=C3\SC(=S)NC3=O)c3cc(I)cc1c32` (stereo not drawn) [12l, (Z)-5-(6-(4-Chlorophenyl)-8-iodo-4,4,6-trimethyl-2-oxo-5,6-dihydro-4H-pyrrolo[3,2,1-ij]quinolin-1(2H)-ylidene)-2-thioxothiazolidin-4-one], on factor Xa, the inhibition at 30 µM amounted to 78% and the IC50 was found to be 2.87 ± 0.21 µM. Moreover, on factor XIa, the inhibition at 30 µM came to 95% and the IC50 came to 4.3 ± 0.06 µM.
For `CCN1C(=O)/C(=C2/C(=O)N3c4c2cc(F)cc4C(C)(c2ccc(Cl)cc2)CC3(C)C)SC1=S` (stereo not drawn) [12m, (Z)-5-(6-(4-Chlorophenyl)-8-fluoro-4,4,6-trimethyl-2-oxo-5,6-dihydro-4H-pyrrolo[3,2,1-ij]quinolin-1(2H)-ylidene)-3-ethyl-2-thioxothiazolidin-4-one], the inhibition at 30 µM was found to be 18% at factor Xa and 0% at factor XIa.
Regarding `CC1(C)CC2(CCCCC2)N2C(=O)/C(=C3\SC(=S)NC3=O)c3cccc1c32` [12n, (Z)-5-(6′,6′-Dimethyl-2′-oxo-5′,6′-dihydrospiro[cyclohexane-1,4′-pyrrolo[3,2,1-ij]quinolin]-1′(2′H)-ylidene)-2-thioxothiazolidin-4-one], at factor Xa, the inhibition at 30 µM amounted to 94% and 2.6 ± 0.5 µM corresponded to half-maximal inhibition (IC50). Moreover, on factor XIa, the inhibition at 30 µM was found to be 91% and the IC50 stood at 9.41 ± 0.51 µM.
Take `Cc1cc2c3c(c1)C(C)CC1(CCCCC1)N3C(=O)/C2=C1\SC(=S)NC1=O` (stereo not drawn) [12o, (Z)-5-(6′,8′-Dimethyl-2′-oxo-5′,6′-dihydrospiro[cyclohexane-1,4′-pyrrolo[3,2,1-ij]quinolin]-1′(2′H)-ylidene)-2-thioxothiazolidin-4-one]: the inhibition at 30 µM at factor Xa was found to be 48%; on factor XIa, 15%.
Consider `CC1CC2(CCCC2)N2C(=O)/C(=C3\SC(=S)NC3=O)c3cc(F)cc1c32` (stereo not drawn) [12p, (Z)-5-(8′-Fluoro-6′-methyl-2′-oxo-5′,6′-dihydrospiro[cyclopentane-1,4′-pyrrolo[3,2,1-ij]quinolin]-1′(2′H)-ylidene)-2-thioxothiazolidin-4-one], for which, on factor Xa, the inhibition at 30 µM came to 67% and half-maximal inhibition (IC50) was put at 3.03 ± 0.18 µM. Moreover, at factor XIa, the inhibition at 30 µM came out at 77% and the half-inhibitory concentration (IC50) amounted to 12.2 ± 0.5 µM.
On to `CC1CC2(CCCCCC2)N2C(=O)/C(=C3\SC(=S)NC3=O)c3cc(F)cc1c32` (stereo not drawn) [12q, (Z)-5-(8′-Fluoro-6′-methyl-2′-oxo-5′,6′-dihydrospiro[cycloheptane-1,4′-pyrrolo[3,2,1-ij]quinolin]-1′(2′H)-ylidene)-2-thioxothiazolidin-4-one], for which the results for the inhibition at 30 µM on factor Xa and at factor XIa were 47% and 91%, respectively. Besides, half-maximal inhibition at factor XIa (IC50) required 4.32 ± 0.06 µM.
